The text below walks through data of publication PMC7058083, “Structural basis of ligand binding modes at the human formyl peptide receptor 2” (Nature Communications, 2020).

As usually defined, the Kd is the free concentration of one partner at which half of the binding sites on the other are occupied at equilibrium, for simple one-to-one binding. Lower therefore signals a tighter complex.

Positions count from the first letter of the chain named.

Holding throughout (assay): Saturation binding of WK(FITC)YMVm, flow cytometry on HEK293F cells
Background: In flow cytometry, cells or beads pass a laser one at a time.

Assay [1] deals with T1, wild-type (WT) and mutant FPR2 (Homo sapiens, UniProt P25090).
T1 construct: expressed in transfected cells; host or cells: HEK293F
T1 sequence (P25090 1-351): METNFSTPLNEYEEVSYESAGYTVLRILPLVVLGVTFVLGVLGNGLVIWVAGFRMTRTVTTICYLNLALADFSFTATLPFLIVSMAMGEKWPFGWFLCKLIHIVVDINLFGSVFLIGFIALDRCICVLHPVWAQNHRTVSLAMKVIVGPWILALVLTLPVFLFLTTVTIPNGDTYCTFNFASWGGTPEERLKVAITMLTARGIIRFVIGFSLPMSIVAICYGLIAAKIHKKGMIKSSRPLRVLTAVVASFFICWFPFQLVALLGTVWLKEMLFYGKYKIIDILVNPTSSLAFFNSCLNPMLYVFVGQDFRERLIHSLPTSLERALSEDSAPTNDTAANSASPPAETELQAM
The settings on record: FPR2 WT. As to the method:
(§1) Flag-tagged wild-type and mutant FPR2s were cloned into the pTT5 vector and expressed in HEK293F cells. The cells were harvested, and washed with Hanks’ Balanced Salt Solution (HBSS) buffer supplemented with 0.5% bovine serum albumin and 20 mM HEPES, pH 7.4. The cells were then resuspended in the same buffer to the final concentration of 1 × 10^6 cells per ml. The cell-surface expression was measured as mentioned above. […] Mean fluorescent intensity of each well was then read by a FCM (flow cytometry) reader (Millipore). […] For competitive binding of fMLFK, cells were plated in 96-well plates (100,000 cells per well), and incubated with WK(FITC)YMVm at 4 °C for 1 h. The following concentrations of WK(FITC)YMVm were used: 10 nM (wild type, L81^2.60F, E89G, and V105^3.32A), 30 nM (D281^7.32G), 40 nM (H102^3.29F, V160^4.60A, L268^ECL3A, N285^7.36A, and F292^7.43A), and 100 nM (L164^4.64A and T177A). Then increasing concentrations of fMLFK (100 nM–1 mM) were added, and incubated for another 1 h on ice. Mean fluorescent intensity values were measured by flow cytometry. Data were analyzed using Prism 7.0.

Assay [2] has as its target T2, wild-type (WT) and mutant FPR2 (Homo sapiens, UniProt P25090, D281G).
T2 construct: expressed in transfected cells; host or cells: HEK293F
T2 sequence (P25090 1-351 D281G): T1 sequence (P25090 1-351) with D281G
Particulars: FPR2 D281G. As to the method:
as §1

Assay [3] has as its target T3, wild-type (WT) and mutant FPR2 (Homo sapiens, UniProt P25090, E89G).
T3 construct: expressed in transfected cells; host or cells: HEK293F
T3 sequence (P25090 1-351 E89G): T1 sequence (P25090 1-351) with E89G
The settings on record: FPR2 E89G. The method, then:
as §1

The target of assay [4] is T4, wild-type (WT) and mutant FPR2 (Homo sapiens, UniProt P25090, L198F).
T4 construct: expressed in transfected cells; host or cells: HEK293F
The settings on record: FPR2 L198F. As to the method:
as §1

Assay [5] deals with T5, wild-type (WT) and mutant FPR2 (Homo sapiens, UniProt P25090, L81F).
T5 construct: expressed in transfected cells; host or cells: HEK293F
T5 sequence (P25090 1-351 L81F): T1 sequence (P25090 1-351) with L81F
Particulars: FPR2 L81F. As to the method:
as §1

Assay [6] deals with T6, wild-type (WT) and mutant FPR2 (Homo sapiens, UniProt P25090, N285A).
T6 construct: expressed in transfected cells; host or cells: HEK293F
T6 sequence (P25090 1-351 N285A): T1 sequence (P25090 1-351) with N285A
Particulars: FPR2 N285A. As to the method: as §1

For assay [7], the target named is T7, wild-type (WT) and mutant FPR2 (Homo sapiens, UniProt P25090, S211L).
T7 construct: expressed in transfected cells; host or cells: HEK293F
The method, then: as §1

In assay [8] the test system is wild-type (WT) and mutant FPR2. On the set-up: species or system human. As to the method: as §1

T4 sequence (P25090 whole entry L198F): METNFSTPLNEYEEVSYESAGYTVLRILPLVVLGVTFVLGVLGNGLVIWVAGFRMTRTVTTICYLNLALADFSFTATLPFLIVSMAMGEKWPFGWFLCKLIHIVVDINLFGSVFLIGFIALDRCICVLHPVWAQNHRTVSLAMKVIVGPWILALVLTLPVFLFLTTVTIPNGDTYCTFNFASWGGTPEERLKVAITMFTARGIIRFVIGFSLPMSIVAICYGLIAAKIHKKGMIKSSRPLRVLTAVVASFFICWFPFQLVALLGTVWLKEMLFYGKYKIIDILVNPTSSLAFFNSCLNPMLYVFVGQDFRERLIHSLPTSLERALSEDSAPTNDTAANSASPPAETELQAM
T7 sequence (P25090 other isoform, or with tags, fused parts or gaps S211L): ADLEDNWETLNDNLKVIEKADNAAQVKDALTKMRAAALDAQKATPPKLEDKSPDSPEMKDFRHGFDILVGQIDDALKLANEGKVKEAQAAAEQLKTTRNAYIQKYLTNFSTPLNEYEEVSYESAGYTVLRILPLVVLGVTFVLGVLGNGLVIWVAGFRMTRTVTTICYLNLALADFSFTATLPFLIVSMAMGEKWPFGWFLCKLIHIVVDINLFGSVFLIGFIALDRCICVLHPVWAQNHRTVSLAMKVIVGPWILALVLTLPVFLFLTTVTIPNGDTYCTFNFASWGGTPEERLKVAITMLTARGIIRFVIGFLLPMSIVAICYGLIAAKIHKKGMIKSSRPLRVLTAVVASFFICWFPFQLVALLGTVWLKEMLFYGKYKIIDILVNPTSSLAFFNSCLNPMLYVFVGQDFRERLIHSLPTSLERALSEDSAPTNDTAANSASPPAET

For `CSCC[C@H](NC(=O)[C@H](Cc1ccc(O)cc1)NC(=O)[C@H](CCCCNC(=S)Nc1ccc2c(c1)C(=O)OC21c2ccc(O)cc2Oc2cc(O)ccc21)NC(=O)[C@@H](N)Cc1c[nH]c2ccccc12)C(=O)N[C@H](C(=O)N[C@H](CCSC)C(N)=O)C(C)C` [WK(FITC)YMVm], the “Span (% of WT), saturation binding” value in assay [1] was 100 % of WT; in assay [2] it was 39 ± 3 % of WT; in assay [3], 134 ± 7 % of WT; in assay [4], 60 ± 9 % of WT; in assay [5], 42 ± 4 % of WT; in assay [6], 85 ± 13 % of WT. In addition, the “Span (% of WT), saturation binding” value in assay [7] (FPR2 crystallization construct) was 154 ± 21 % of WT. Further, the Kd in assay [1] (mean ± s.e.m., n=3, SEM) was 24.0 ± 8.5 nM; in assay [2] (mean ± s.e.m., n=4, SEM), 34.3 ± 14.1 nM; in assay [3] (mean ± s.e.m., n=3, SEM), 29.3 ± 6.0 nM; in assay [4] (mean ± s.e.m., n=3, SEM) it was 21.4 ± 5.3 nM; in assay [5] (mean ± s.e.m., n=3, SEM), 24.3 ± 8.4 nM; in assay [6] (mean ± s.e.m., n=4, SEM), 43.3 ± 15.3 nM. Moreover, the Kd in assay [7] (FPR2 crystallization construct (N-terminal bRIL, S211L, 5 C-terminal residues truncated), mean ± s.e.m., n=5, SEM) is 27.7 ± 5.6 nM. In addition, in assay [8] (mutant F257Y vs WT), the “reduction of binding affinity of WK(FITC)YMVm” value is recorded as 7 fold. Further, the “binding of WK(FITC)YMVm” value in assay [8] (mutants D281G and D281L) is reported as “decreased binding”; in assay [8] (mutations D106A and R201A), “significantly impaired”. Further, the “binding of FPR2 to WK(FITC)YMVm” value in assay [8] (mutations V105F, L109A, F110A, V113A, L164W, F178A, F180A, W254A, F257A and M271A) is recorded as “abolish the binding”.
